pIC50: −log10 of the molar value.

One assay addresses Histone deacetylase 4 (Homo sapiens, UniProt P56524). Nature of the assay: Inhibition of human recombinant TEV-8His-tagged HDAC4 (648 to 1057 residues) expressed in Escherichia coli (DE3) Rosetta cells using Boc-Lys-(Tfa)-AMC as substrate preincubated for 5 mins followed by substrate addition and measured after 90 mins by fluorescence based microplate reader analysis.
A further assay deals with Histone deacetylase 2 (Homo sapiens, UniProt Q92769). Nature of the assay: Inhibition of human recombinant HDAC2 using Boc-Lys(Ac)-AMC as substrate preincubated for 5 mins followed by substrate addition and measured after 90 mins by fluorescence based microplate reader analysis.
In assay [1] the target is T1, Protein deacetylase HDAC6 (Homo sapiens, UniProt Q9UBN7).
T1 sequence (Q9UBN7 whole entry): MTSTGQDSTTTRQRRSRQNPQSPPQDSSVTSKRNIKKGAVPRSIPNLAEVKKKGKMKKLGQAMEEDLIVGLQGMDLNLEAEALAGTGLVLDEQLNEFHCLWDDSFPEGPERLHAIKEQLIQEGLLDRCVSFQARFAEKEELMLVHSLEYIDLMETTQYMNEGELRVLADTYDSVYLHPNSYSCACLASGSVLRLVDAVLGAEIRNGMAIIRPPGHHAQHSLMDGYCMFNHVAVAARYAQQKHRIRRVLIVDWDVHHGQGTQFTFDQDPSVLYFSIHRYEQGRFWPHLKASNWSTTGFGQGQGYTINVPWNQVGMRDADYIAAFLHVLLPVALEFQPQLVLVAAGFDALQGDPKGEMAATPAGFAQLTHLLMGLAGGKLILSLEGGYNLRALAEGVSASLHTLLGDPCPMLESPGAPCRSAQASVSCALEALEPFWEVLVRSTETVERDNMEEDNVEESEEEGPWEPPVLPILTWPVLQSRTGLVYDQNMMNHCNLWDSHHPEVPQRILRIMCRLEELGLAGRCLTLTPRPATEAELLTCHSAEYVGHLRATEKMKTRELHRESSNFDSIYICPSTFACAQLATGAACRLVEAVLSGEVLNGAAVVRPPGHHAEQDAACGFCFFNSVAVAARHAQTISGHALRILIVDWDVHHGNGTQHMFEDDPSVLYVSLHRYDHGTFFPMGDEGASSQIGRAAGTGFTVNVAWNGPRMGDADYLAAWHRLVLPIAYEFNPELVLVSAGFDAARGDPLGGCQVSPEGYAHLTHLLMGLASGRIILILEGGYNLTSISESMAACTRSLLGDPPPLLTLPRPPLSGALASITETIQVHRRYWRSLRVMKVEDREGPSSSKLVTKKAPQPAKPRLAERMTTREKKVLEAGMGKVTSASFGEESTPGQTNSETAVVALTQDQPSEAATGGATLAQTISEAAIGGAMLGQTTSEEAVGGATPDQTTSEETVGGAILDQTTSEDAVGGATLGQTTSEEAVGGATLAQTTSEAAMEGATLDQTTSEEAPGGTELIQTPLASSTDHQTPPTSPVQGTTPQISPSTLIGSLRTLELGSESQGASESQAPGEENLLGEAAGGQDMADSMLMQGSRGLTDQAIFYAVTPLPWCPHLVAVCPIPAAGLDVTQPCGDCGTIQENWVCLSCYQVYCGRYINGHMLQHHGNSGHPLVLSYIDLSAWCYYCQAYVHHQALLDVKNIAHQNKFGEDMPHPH
Kind of assay: Inhibition of human recombinant HDAC6 using Boc-Lys(Ac)-AMC as substrate preincubated for 5 mins followed by substrate addition and measured after 90 mins by fluorescence based microplate reader analysis.

A further assay deals with T2, Histone deacetylase 8 (Homo sapiens, UniProt Q9BY41).
T2 sequence (Q9BY41 whole entry): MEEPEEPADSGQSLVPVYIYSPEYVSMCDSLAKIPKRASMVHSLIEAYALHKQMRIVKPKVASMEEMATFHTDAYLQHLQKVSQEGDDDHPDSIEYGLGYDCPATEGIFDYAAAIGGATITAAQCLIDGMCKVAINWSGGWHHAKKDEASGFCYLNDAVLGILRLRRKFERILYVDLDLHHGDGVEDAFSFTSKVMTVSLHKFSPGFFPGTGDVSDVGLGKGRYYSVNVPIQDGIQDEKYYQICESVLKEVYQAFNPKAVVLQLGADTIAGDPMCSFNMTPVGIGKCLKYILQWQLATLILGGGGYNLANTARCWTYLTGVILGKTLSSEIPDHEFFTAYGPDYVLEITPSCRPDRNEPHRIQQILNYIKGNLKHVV
Nature of the assay: Inhibition of human recombinant HDAC8 using Boc-Lys-(Tfa)-AMC as substrate preincubated for 5 mins followed by substrate addition and measured after 90 mins by fluorescence based microplate reader analysis.

Assay [2] relates to THP-1. Nature of the assay: Inhibition of Class IIa/8 HDAC in human THP-1 cells at 100 uM preincubated for 18 hrs followed by substrate addition and measured after 3 hrs by fluorescence based microplate reader assay relative to control. The class given is cell-based. The following applies: time 21.0 hrs, values are per cent of control.
Assay [3] concerns THP-1. Nature of the assay: Inhibition of Class I/IIb HDAC in human THP-1 cells at 100 uM preincubated for 18 hrs followed by substrate addition and measured after 3 hrs by fluorescence based microplate reader assay relative to control. The assay is classed as cell-based. To be noted: time 21.0 hrs.
The nature of assay [4]: Inhibition of Class I/IIb HDAC in human THP-1 cells preincubated for 18 hrs followed by substrate addition and measured after 3 hrs by fluorescence based microplate reader assay. The assay is classed as cell-based.
The nature of assay [5]: Inhibition of Class IIa/8 HDAC in human THP-1 cells preincubated for 18 hrs followed by substrate addition and measured after 3 hrs by fluorescence based microplate reader assay. The class given is cell-based.
For assay [6], the system named is THP-1. Kind of assay: Antiproliferative activity against human THP-1 cells assessed as reduction in cell viability at 100 uM incubated for 72 hrs by MTT assay relative to control. The class given is functional. (In general: Tetrazolium dyes change colour on reduction, which living cells bring about.)
Assay [7] deals with THP-1. Nature of the assay: cells. To be noted: Homo sapiens, THP-1, 72 h.
Description: Antiproliferative activity against human THP-1 cells assessed as inhibition of cell growth incubated for 72 hrs by MTT assay
Another assay has as its target Histone deacetylase 1 (Homo sapiens, UniProt Q13547). Kind of assay: Inhibition of HDAC1 (unknown origin).
A further assay deals with Histone deacetylase 3 (Homo sapiens, UniProt O15379). Kind of assay: Inhibition of HDAC3 (unknown origin).
In the next assay the target is Histone deacetylase 5 (Homo sapiens, UniProt Q9UQL6). Nature of the assay: Inhibition of HDAC5 (unknown origin).
In another assay the target is T3, Histone deacetylase 11 (Homo sapiens, UniProt Q96DB2).
T3 sequence (Q96DB2 whole entry): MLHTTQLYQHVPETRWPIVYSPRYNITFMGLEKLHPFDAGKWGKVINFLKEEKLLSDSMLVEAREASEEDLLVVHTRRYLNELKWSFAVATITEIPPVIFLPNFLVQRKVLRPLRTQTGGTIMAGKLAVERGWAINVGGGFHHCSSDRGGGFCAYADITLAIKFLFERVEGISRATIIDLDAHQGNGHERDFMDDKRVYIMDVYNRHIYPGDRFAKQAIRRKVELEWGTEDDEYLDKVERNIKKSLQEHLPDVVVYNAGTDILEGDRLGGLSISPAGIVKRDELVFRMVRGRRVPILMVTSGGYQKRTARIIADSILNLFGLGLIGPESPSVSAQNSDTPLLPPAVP
Kind of assay: Inhibition of HDAC11 (unknown origin).

Assay [8] relates to CAL-27. Kind of assay: Antiproliferative activity against human CAL-27 cells overexpressing HDAC4 assessed as inhibition of cell growth incubated for 72 hrs by MTT assay. The class given is functional, cell-based. The following applies: CAL-27, 72 h.
Assay [9] has as its system CAL-27. Kind of assay: Antiproliferative activity against human CAL-27 cells without HDAC4 expression assessed as inhibition of cell growth incubated for 72 hrs by MTT assay. The class given is functional, cell-based. To be noted: CAL-27, 72 h.

Histone deacetylase 2, sequence (Q92769 whole entry): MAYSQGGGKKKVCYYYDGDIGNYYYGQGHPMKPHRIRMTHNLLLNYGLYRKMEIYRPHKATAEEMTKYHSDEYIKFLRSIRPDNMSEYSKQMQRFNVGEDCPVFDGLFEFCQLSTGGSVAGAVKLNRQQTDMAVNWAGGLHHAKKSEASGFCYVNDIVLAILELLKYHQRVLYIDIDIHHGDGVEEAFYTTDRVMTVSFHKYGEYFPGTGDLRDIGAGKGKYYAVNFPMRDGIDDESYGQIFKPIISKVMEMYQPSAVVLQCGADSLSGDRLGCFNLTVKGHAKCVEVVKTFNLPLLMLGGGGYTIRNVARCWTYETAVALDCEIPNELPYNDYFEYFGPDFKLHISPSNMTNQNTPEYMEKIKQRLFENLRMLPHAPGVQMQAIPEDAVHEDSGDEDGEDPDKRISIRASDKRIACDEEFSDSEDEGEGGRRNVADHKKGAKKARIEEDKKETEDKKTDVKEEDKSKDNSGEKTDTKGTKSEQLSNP
Histone deacetylase 4, sequence (P56524 whole entry, the tested form may be a part): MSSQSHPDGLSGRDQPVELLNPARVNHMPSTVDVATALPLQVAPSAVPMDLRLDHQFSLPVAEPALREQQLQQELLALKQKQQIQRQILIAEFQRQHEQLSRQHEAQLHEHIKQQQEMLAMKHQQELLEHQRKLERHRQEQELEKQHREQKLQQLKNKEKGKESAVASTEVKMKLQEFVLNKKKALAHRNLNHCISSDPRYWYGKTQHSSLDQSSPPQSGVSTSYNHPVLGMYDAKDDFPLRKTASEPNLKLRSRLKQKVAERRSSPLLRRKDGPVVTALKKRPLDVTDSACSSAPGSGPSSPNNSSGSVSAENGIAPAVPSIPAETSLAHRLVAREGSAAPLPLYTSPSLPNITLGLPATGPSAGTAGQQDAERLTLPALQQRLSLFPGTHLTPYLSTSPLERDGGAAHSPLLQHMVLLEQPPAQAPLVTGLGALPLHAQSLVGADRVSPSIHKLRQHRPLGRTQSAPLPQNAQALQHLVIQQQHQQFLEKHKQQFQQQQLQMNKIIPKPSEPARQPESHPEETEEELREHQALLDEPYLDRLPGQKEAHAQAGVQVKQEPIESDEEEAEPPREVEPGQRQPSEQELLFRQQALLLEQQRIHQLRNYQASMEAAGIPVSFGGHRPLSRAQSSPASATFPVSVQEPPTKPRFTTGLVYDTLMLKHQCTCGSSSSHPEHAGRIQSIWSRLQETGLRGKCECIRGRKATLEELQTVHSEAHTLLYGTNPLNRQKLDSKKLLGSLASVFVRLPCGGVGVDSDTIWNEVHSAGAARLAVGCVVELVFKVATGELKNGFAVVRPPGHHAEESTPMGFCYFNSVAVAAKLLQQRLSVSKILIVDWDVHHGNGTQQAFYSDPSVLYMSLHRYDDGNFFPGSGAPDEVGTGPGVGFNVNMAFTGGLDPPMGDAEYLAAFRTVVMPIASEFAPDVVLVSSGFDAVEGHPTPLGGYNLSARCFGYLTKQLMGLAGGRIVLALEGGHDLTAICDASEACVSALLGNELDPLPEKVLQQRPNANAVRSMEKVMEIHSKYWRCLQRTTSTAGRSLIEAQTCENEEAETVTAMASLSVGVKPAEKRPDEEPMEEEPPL
Histone deacetylase 5, sequence (Q9UQL6 whole entry): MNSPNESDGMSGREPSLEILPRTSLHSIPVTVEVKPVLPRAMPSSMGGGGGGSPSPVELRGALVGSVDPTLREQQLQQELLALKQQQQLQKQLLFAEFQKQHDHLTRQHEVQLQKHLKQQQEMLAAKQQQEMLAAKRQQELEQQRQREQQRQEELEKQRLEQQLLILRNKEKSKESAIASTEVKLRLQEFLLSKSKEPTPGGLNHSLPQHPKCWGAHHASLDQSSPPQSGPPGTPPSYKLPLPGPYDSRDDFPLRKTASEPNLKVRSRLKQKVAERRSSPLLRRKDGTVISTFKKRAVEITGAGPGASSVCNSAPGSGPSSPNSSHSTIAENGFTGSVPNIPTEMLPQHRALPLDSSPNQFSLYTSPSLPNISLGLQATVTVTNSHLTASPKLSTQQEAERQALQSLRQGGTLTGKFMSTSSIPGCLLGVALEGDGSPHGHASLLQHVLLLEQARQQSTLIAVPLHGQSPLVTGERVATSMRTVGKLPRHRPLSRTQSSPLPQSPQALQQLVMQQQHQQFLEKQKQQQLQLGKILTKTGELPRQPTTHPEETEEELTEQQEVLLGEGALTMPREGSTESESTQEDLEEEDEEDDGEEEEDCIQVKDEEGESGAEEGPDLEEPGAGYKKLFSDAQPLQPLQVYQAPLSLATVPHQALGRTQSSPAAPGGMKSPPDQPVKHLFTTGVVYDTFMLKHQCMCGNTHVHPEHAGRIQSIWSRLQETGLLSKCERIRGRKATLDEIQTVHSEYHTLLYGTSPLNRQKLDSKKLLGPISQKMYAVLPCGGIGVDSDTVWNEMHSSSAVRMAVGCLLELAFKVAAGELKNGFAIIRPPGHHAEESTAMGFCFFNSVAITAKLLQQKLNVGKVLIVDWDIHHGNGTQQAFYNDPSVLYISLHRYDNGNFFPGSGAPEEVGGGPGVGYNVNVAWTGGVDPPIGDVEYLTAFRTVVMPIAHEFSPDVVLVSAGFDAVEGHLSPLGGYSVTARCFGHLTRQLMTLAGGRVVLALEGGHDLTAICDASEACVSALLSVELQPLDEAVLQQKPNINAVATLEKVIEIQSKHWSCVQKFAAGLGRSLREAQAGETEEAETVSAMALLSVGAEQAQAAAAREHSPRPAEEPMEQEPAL
Histone deacetylase 3, sequence (O15379 whole entry): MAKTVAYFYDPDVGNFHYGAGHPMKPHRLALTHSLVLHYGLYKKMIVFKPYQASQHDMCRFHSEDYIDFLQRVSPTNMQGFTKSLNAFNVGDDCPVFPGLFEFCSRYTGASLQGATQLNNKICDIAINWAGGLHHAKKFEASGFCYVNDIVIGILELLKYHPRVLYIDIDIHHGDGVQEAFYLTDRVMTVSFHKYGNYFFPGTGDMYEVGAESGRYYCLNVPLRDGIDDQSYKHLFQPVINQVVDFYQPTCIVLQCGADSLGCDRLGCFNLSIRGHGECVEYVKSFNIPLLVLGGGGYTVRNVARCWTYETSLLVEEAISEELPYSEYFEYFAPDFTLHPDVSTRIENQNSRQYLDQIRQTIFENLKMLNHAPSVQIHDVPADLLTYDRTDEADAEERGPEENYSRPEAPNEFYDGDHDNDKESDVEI
Histone deacetylase 1, sequence (Q13547 whole entry): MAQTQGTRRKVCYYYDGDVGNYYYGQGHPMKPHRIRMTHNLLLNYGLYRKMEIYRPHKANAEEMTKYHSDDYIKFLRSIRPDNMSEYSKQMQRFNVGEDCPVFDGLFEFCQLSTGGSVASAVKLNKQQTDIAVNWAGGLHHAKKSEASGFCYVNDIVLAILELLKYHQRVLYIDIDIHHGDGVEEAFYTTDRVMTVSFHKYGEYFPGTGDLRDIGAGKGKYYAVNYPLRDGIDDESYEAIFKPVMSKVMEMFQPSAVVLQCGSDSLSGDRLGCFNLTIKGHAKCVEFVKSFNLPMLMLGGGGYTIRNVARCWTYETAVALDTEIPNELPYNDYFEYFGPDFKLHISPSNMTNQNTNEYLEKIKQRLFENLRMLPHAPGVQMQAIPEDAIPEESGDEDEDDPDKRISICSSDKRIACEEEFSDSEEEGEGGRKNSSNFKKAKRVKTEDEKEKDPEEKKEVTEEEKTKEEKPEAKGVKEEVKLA

Take `CN1CCN(C(=O)c2ccc(-c3noc(C(F)(F)F)n3)cc2)CC1`: the pIC50 (usually the IC50 on a negative log10 scale, so that one unit is a factor of ten) on Histone deacetylase 4 was 5.93; at Histone deacetylase 2 it was 4.10; in assay [1], 4.26; on Histone deacetylase 8, 4.79; in assay [4], < 4.00; in [5], 5.26. The pIC50 in the assay on THP-1 [7] is < 4.00. Also, the residual activity (as a rule, the signal under treatment as a percentage of the control signal) with THP-1 [2] was 103%. Also, the inhibition (usually the share of the control response that was lost under treatment) with THP-1 [3] was determined as 23%. The Activity in the assay with THP-1 [6] was 39%.

On to `O=C(NOCCN1CCOCC1)c1ccc(-c2noc(C(F)(F)F)n2)cc1`, for which the pIC50 at Histone deacetylase 4 was 6.85; at Histone deacetylase 2 it was 5.01; in assay [1], 4.74; at Histone deacetylase 8, 5.15; in assay [4] it was < 4.00; in assay [5], 6.37. Further, the pIC50 on Histone deacetylase 1 is 5.66; against Histone deacetylase 3, 5.63; on Histone deacetylase 5, 6.82; at Histone deacetylase 11, < 4.00; with THP-1 [7] it was ~4.00. The residual activity with THP-1 [2] came to 100%. Besides, the inhibition in the assay on THP-1 [3] amounted to 41%. Also, the Activity with THP-1 [6] was 47%.

For the molecule `O=C(Nc1cnc2ccccc2c1)c1ccc(-c2noc(C(F)(F)F)n2)cc1`, the negative-log IC50 (pIC50) at Histone deacetylase 4 is 5.26; at Histone deacetylase 2, < 4.00; in assay [1], < 4.00; at Histone deacetylase 8, < 4.00; in assay [4], < 4.00; in assay [5], < 4.00. The molecule also showed a pIC50 in the assay with THP-1 [7] of 4.33. Moreover, in the assay on THP-1 [2], the residual activity was found to be 18%. Besides, in the assay on THP-1 [3], the inhibition came to 0%. Further, in the assay with THP-1 [6], the Activity was 63%.

As for `O=C(NO)C(c1ccc(-c2ncc(C(F)(F)F)cn2)cc1)c1ccccc1F` (configuration not stated), the pIC50 in the assay on CAL-27 [8] is 4.89; in the assay with CAL-27 [9] it was 5.01.

Take `O=C(NCCc1c[nH]c2ccccc12)c1ccc(-c2noc(C(F)(F)F)n2)cc1`: the pIC50 on Histone deacetylase 4 was 6.16; at Histone deacetylase 2, < 4.00; in assay [1], < 4.00; on Histone deacetylase 8 it was < 4.00; in assay [5], 4.84; with THP-1 [7], ~4.00. The residual activity with THP-1 [2] turned out to be 97%. For the same molecule, the inhibition with THP-1 [3] was determined as 64%. In addition, the Activity in the assay on THP-1 [6] was found to be 49%.

Consider `O=C(CCCCCCC(=O)Nc1ccccc1)NO` [VORINOSTAT], for which the Activity in the assay with THP-1 [6] came out at 97%.

For the molecule `CCN(CC)CCCCNC(=O)c1ccc(-c2noc(C(F)(F)F)n2)cc1`, the negative logarithm of the IC50 (pIC50) at Histone deacetylase 4 was 6.86; at Histone deacetylase 2, 4.60; in [1], 5.25; on Histone deacetylase 8, 5.17; in assay [4], 4.86; in assay [5] it was 5.93. The pIC50 with THP-1 [7] was ~4.00. Further, in the assay on THP-1 [2], the residual activity was determined as 102%. In the assay on THP-1 [3], the inhibition was found to be 73%. The Activity in the assay with THP-1 [6] amounted to 47%.

In the case of `CN(C(=O)c1ccc(-c2noc(C(F)(F)F)n2)cc1)c1ccccc1`, the pIC50 is 6.12 at Histone deacetylase 4; < 4.00 on Histone deacetylase 2; 4.71 in [1]; 4.14 at Histone deacetylase 8; < 4.00 in assay [4]; 5.19 in assay [5]. Moreover, the pIC50 in the assay with THP-1 [7] is < 4.00. Also, the residual activity in the assay on THP-1 [2] turned out to be 118%. Also, in the assay with THP-1 [3], the inhibition stood at 31%. The Activity with THP-1 [6] was 33%.

Take `CN(Cc1ccccc1)C(=O)c1ccc(-c2noc(C(F)(F)F)n2)cc1`: the pIC50 on Histone deacetylase 4 is 7.60; at Histone deacetylase 2 it was 5.09; in assay [1], 5.69; at Histone deacetylase 8, < 4.00; in assay [4], 4.54; in assay [5], 6.27. Besides, the pIC50 was 4.84 against Histone deacetylase 1; 5.16 on Histone deacetylase 3; 6.81 at Histone deacetylase 5; < 4.00 at Histone deacetylase 11; < 4.00 in the assay with THP-1 [7]. In addition, in the assay with THP-1 [2], the residual activity was 117%. The molecule further had an inhibition with THP-1 [3] of 78%. Moreover, the Activity in the assay with THP-1 [6] is recorded as 34%.

With `Cc1[nH]c2ccccc2c1CCNCc1ccc(/C=C/C(=O)NO)cc1` [PANOBINOSTAT], the Activity in the assay with THP-1 [6] worked out at 96%. Besides, the pIC50 with THP-1 [7] was 9.00.

With `CN(C)c1ccc(CNC(=O)c2ccc(-c3noc(C(F)(F)F)n3)cc2)cc1`, the pIC50 on Histone deacetylase 4 is 6.03; on Histone deacetylase 2, < 4.00; in [1] it was < 4.00; on Histone deacetylase 8, < 4.00; in [4] it was < 4.00; in assay [5] it was 5.26. Also, in the assay on THP-1 [7], the pIC50 was ~4.00. Moreover, the residual activity with THP-1 [2] is 103%. In addition, the inhibition in the assay on THP-1 [3] turned out to be 25%. Moreover, the Activity with THP-1 [6] is given as 49%.

For `CCN(CC)CCN(C)C(=O)c1ccc(-c2noc(C(F)(F)F)n2)cc1`, the pIC50 on Histone deacetylase 4 was 6.70; at Histone deacetylase 2, 4.46; in assay [1], 4.77; at Histone deacetylase 8 it was 4.97; in [4], 4.85; in [5], 5.90. Moreover, the pIC50 with THP-1 [7] was < 4.00. Besides, in the assay on THP-1 [2], the residual activity amounted to 98%. The molecule further came in with an inhibition with THP-1 [3] of 65%. The Activity in the assay with THP-1 [6] worked out at 31%.

For the origin of these results see ChEMBL document CHEMBL5537119 (Eur J Med Chem, 2024).
